Reference: ChEMBL document CHEMBL1149341, “Two novel immunosuppressive pregnane glycosides from the roots of Stephanotis mucronata” (Bioorg Med Chem Lett, 2006)

Tests used:
Splenocyte [1] = test: Inhibition of concanavalin A-stimulated mouse splenocyte proliferation by MTT method; format: functional, cell-based
Splenocyte [2] = test: Inhibition of LPS-stimulated mouse splenocyte proliferation by MTT method; format: functional, cell-based

SMILES | Activity (Splenocyte [1]) | Activity (Splenocyte [2])
CNc1ccccc1C(=O)O[C@H](C)[C@]1(O)CC[C@@]2(O)[C@]1(C)[C@H](OC(C)=O)C[C@@H]1[C@@]3(C)CC[C@H](O[C@H]4C[C@H](OC)[C@H](OC5C[C@H](OC)[C@H](O[C@@H]6O[C@H](C)[C@@H](O[C@@H]7O[C@H](CO)[C@@H](O)[C@H](O)[C@H]7O)[C@@H](OC)[C@H]6O)[C@@H](C)O5)[C@@H](C)O4)C[C@@H]3CC[C@]12O (some centres undefined) | Dose-dependent effect | Dose-dependent effect
CO[C@H]1[C@@H](O)[C@H](O[C@H]2[C@@H](OC)C[C@H](O[C@H]3[C@@H](OC)C[C@H](O[C@H]4CC[C@@]5(C)C(=CC[C@]6(O)C5C[C@@H](OC(=O)c5cccnc5)[C@@]5(C)[C@]6(O)CC[C@@]5(O)[C@@H](C)OC(=O)/C=C/c5ccccc5)C4)O[C@@H]3C)O[C@@H]2C)O[C@H](C)[C@H]1O[C@@H]1O[C@H](CO)[C@@H](O)[C@H](O)[C@H]1O (some centres undefined) | Dose-dependent effect | Dose-dependent effect
